Converted amounts (≈) assume the structure as drawn.
Key:
Enterobacter cloacae = assay: MIC, recent Enterobacteriaceae clinical isolates: Enterobacter cloacae (Examples 7, 11); assay type: cell-based
Citrobacter spp = assay: MIC, recent Enterobacteriaceae clinical isolates: Citrobacter spp (Examples 7, 11); assay type: cell-based
Enterobacteriaceae = assay: organism not typed; assay type: cell-based
A. baumannii [1] = assay: MIC, 20 diverse recent strains of A. baumannii (Example 10); assay type: cell-based, Acinetobacter baumannii; details: N 20 A. baumannii strains
A. baumannii [2] = assay: Neutropenic mouse thigh and lung infection models; details: neutropenic CD-1 mice, subcutaneous q3h, sulbactam+compound 1 at 4:1 ratio, 24 h, isolate containing AmpC, OXA-66, OXA-72, TEM-1, FIG. 4
Escherichia coli = assay: MIC, recent Enterobacteriaceae clinical isolates: Escherichia coli (Examples 7, 11)
Klebsiella pneumoniae = assay: MIC, recent Enterobacteriaceae clinical isolates: Klebsiella pneumoniae (Examples 7, 11)

## CC1(C)[C@H](C(=O)O)N2C(=O)C[C@H]2S1(=O)=O [Sulbactam, (2S,5R)-3,3-dimethyl-7-oxo-4-thia-1-azabicyclo[3.2.0]heptane-2-carboxylic acid 4,4-dioxide]
Enterobacter cloacae
  MIC50: 64 µg/mL (≈ 274 µM)
Enterobacter cloacae; Enterobacter cloacae ARC4438, AmpC+
  MIC: 128 µg/mL (≈ 549 µM)
Enterobacter cloacae; Enterobacter cloacae ARC4444, AmpC+, MIR-8[I175L]
  MIC: 64 µg/mL (≈ 274 µM)
Enterobacter cloacae; Enterobacter cloacae ARC4458, AmpC+, ACT-2[V312M]
  MIC: 64 µg/mL (≈ 274 µM)
Enterobacter cloacae; Enterobacter cloacae ARC4473, SHV-5+, AmpC+, DHA-1+, TEM-1+
  MIC: 128 µg/mL (≈ 549 µM)
Enterobacter cloacae; Enterobacter cloacae ARC4489, AmpC+
  MIC: 128 µg/mL (≈ 549 µM)
Enterobacter cloacae; Enterobacter cloacae ARC4492, AmpC+
  MIC: 256 µg/mL (≈ 1100 µM)
Enterobacter cloacae; N 10
  MIC90: 128 µg/mL (≈ 549 µM)
  MIC range: 64 to 256 µg/mL
Citrobacter spp; Citrobacter
  MIC50: 256 µg/mL (≈ 1100 µM)
  MIC90: > 256 µg/mL
Citrobacter spp; Citrobacter braakii ARC3660, CTX-M-15
  MIC: 32 µg/mL (≈ 137 µM)
Citrobacter spp; Citrobacter freundii ARC3522, AmpC, TEM-1, CMY65
  MIC: > 256 µg/mL
Citrobacter spp; Citrobacter freundii ARC3883, KPC-2
  MIC: 256 µg/mL (≈ 1100 µM)
Citrobacter spp; Citrobacter freundii ARC3884, KPC-2
  MIC: 256 µg/mL (≈ 1100 µM)
Citrobacter spp; Citrobacter freundii ARC3885, AmpH, TEM-1, SHV-5, CMY-6, CMY-13
  MIC: 256 µg/mL (≈ 1100 µM)
Citrobacter spp; Citrobacter koseri ARC2001, ESBL
  MIC: 64 µg/mL (≈ 274 µM)
Citrobacter spp; Citrobacter koseri ARC2002, ESBL
  MIC: 64 µg/mL (≈ 274 µM)
Enterobacteriaceae
  MIC50: 64 µg/mL (≈ 274 µM)
  MIC90: 256 µg/mL (≈ 1100 µM)
A. baumannii [1]
  MIC50: 16 µg/mL (≈ 68.6 µM)
  MIC90: 64 µg/mL (≈ 274 µM)
  MIC Max: > 64 µg/mL
  MIC Min: 2 µg/mL (≈ 8.57 µM)
A. baumannii [2]
  efficacy (mean delta log CFU): failed to show efficacy
Escherichia coli; Escherichia coli
  MIC: 128 µg/mL (≈ 549 µM)
  MIC50: 64 µg/mL (≈ 274 µM)
  MIC90: 64 µg/mL (≈ 274 µM)
Escherichia coli; Escherichia coli ARC4471, CMY-2+, OXA-1+, TEM-1+
  MIC: 128 µg/mL (≈ 549 µM)
Escherichia coli; Escherichia coli, ATCC25922, Escherichia coli ARC4, none (ATCC 25922) CLSI control
  MIC: 64 µg/mL (≈ 274 µM)
Escherichia coli; Escherichia coli, Escherichia coli ARC4416, CTX-M-14+, TEM-1+
  MIC: 32 µg/mL (≈ 137 µM)
Escherichia coli; Escherichia coli, Escherichia coli ARC4418, CTX-M-14+, CMY-2+
  MIC: 32 µg/mL (≈ 137 µM)
Escherichia coli; Escherichia coli, Escherichia coli ARC4419, SHV-12+
  MIC: 32 µg/mL (≈ 137 µM)
Escherichia coli; Escherichia coli, Escherichia coli ARC4421, CTX-M-55, TEM-1+, CMY-2+
  MIC: 64 µg/mL (≈ 274 µM)
Escherichia coli; Escherichia coli, Escherichia coli ARC4426, TEM-1+, CMY-2+
  MIC: 32 µg/mL (≈ 137 µM)
Escherichia coli; Escherichia coli, Escherichia coli ARC4429, TEM-1+, CMY-2+
  MIC: 64 µg/mL (≈ 274 µM)
Escherichia coli; Escherichia coli, Escherichia coli ARC4436, CTX-M-14+, TEM-1+
  MIC: 32 µg/mL (≈ 137 µM)
Escherichia coli; Escherichia coli, Escherichia coli ARC4449, CMY-2+, TEM-1+
  MIC: 64 µg/mL (≈ 274 µM)
Escherichia coli; Escherichia coli, Escherichia coli ARC4450, TEM-1+, OXA-1+, CMY-2+
  MIC: 64 µg/mL (≈ 274 µM)
Escherichia coli; Escherichia coli, Escherichia coli ARC4452, SHV-12+
  MIC: 32 µg/mL (≈ 137 µM)
Escherichia coli; Escherichia coli, Escherichia coli ARC4455, SHV-12+
  MIC: 32 µg/mL (≈ 137 µM)
Escherichia coli; Escherichia coli, Escherichia coli ARC4465, CMY-2+
  MIC: 32 µg/mL (≈ 137 µM)
Escherichia coli; Escherichia coli, Escherichia coli ARC4472, CMY-2+, TEM-1+
  MIC: 64 µg/mL (≈ 274 µM)
Escherichia coli; Escherichia coli, Escherichia coli ARC4477, CTX-M-15+, TEM-1+
  MIC: 32 µg/mL (≈ 137 µM)
Escherichia coli; Escherichia coli, Escherichia coli ARC4478, CTX-M-15+, CMY-2+
  MIC: 32 µg/mL (≈ 137 µM)
Escherichia coli; Escherichia coli, Escherichia coli ARC4479, CMY-42+, OXA-1+, OXA-9+, TEM-1+
  MIC: 64 µg/mL (≈ 274 µM)
Escherichia coli; Escherichia coli, Escherichia coli ARC4485, CMY-2+, OXA-1+, CTX-M-15+
  MIC: 64 µg/mL (≈ 274 µM)
Escherichia coli; Escherichia coli, Escherichia coli ARC4487, SHV-5+, DHA-1+, TEM-1+, OXA-1+, CMY-2+
  MIC: 64 µg/mL (≈ 274 µM)
Klebsiella pneumoniae
  MIC50: 64 µg/mL (≈ 274 µM)
  MIC90: > 256 µg/mL
Klebsiella pneumoniae; Klebsiella pneumoniae ARC4420, SHV-11, SHV-12, DHA-1, OXA-1
  MIC: 128 µg/mL (≈ 549 µM)
Klebsiella pneumoniae; Klebsiella pneumoniae ARC4427, SHV-1, OXA-1
  MIC: > 256 µg/mL
Klebsiella pneumoniae; Klebsiella pneumoniae ARC4451, SHV-11, KPC-3
  MIC: > 256 µg/mL
Klebsiella pneumoniae; Klebsiella pneumoniae ARC4457, SHV-11, DHA-1
  MIC: 64 µg/mL (≈ 274 µM)
Klebsiella pneumoniae; Klebsiella pneumoniae ARC4460, SHV-11, CTX-M15, OXA-1, NDM-1
  MIC: > 256 µg/mL
